PubChem BioAssay AID248 (DTP/NCI, 2004)
Where “and” joins values, the source holds several entries; their conditions need not be identical. Equal entries are not always repeated. Toxic doses and inconclusive results are not listed. No stated cut-off is given here; in the data, active means T/C of 150% or more; inactive means T/C below 125%.

Test system: L1210 leukemia ip in BDF1 mice, survival T/C
Experiment: NCI In Vivo Anticancer Drug Screen. Data for tumor model L1210 Leukemia (intraperitoneal) in B6D2F1 (BDF1) mice
Settings: endpoint: mean survival time, higher = longer survival
Summary of the method: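 In this screen, tumor-bearing mice given compound are compared to those given vehicle, and their survival values are reported as a treated-to-control quotient.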

[1] = dose: 50.0 mg/kg/injection, schedule: Q01DX009 (ip), vehicle: Klucel (hydroxypropylcellulose) (HPC)
[2] = dose: 100.0 mg/kg/injection, schedule: Q04DX003 (ip), vehicle: Klucel (hydroxypropylcellulose) (HPC)
[3] = dose: 200.0 mg/kg/injection, schedule: Q04DX003 (ip), vehicle: Klucel (hydroxypropylcellulose) (HPC)
[4] = dose: 400.0 mg/kg/injection, schedule: Q04DX003 (ip), vehicle: Klucel (hydroxypropylcellulose) (HPC)
[5] = dose: 100.0 mg/kg/injection, schedule: Q04DX003 (ip), vehicle: saline
[6] = dose: 200.0 mg/kg/injection, schedule: Q04DX003 (ip), vehicle: saline
[7] = dose: 400.0 mg/kg/injection, schedule: Q04DX003 (ip), vehicle: saline
[8] = dose: 100.0 mg/kg/injection, schedule: Q01DX009 (ip), vehicle: Klucel (hydroxypropylcellulose) (HPC)
[9] = dose: 200.0 mg/kg/injection, schedule: Q01DX009 (ip), vehicle: Klucel (hydroxypropylcellulose) (HPC)
[10] = dose: 400.0 mg/kg/injection, schedule: Q01DX009 (ip), vehicle: Klucel (hydroxypropylcellulose) (HPC)
[11] = dose: 150.0 mg/kg/injection, schedule: Q01DX009 (ip), vehicle: other
[12] = dose: 12.5 mg/kg/injection, schedule: Q01DX009 (ip), vehicle: Klucel (hydroxypropylcellulose) (HPC)
[13] = dose: 25.0 mg/kg/injection, schedule: Q01DX009 (ip), vehicle: Klucel (hydroxypropylcellulose) (HPC)
[14] = dose: 100.0 mg/kg/injection, schedule: Q01DX001 (ip), vehicle: carboxymethylcellulose (CMC)
[15] = dose: 200.0 mg/kg/injection, schedule: Q01DX001 (ip), vehicle: carboxymethylcellulose (CMC)
[16] = dose: 400.0 mg/kg/injection, schedule: Q01DX001 (ip), vehicle: carboxymethylcellulose (CMC)

Measured: T/C

C=Cc1c2[n-]c(c1C)/C=c1\[n-]/c(c(C)c1C=C)=C\c1[n-]c(c(CCC(=O)O)c1C)/C=c1\[n-]/c(c(C)c1CCC(=O)O)=C\2.[Co]
inactive: dose: 100.0 mg/kg/injection, schedule: Q01DX009 (ip), vehicle: dextrose 88 % of control | dose: 100.0 mg/kg/injection, schedule: Q04DX003 (ip), vehicle: dextrose 94 % of control | dose: 200.0 mg/kg/injection, schedule: Q01DX009 (ip), vehicle: dextrose 94 % of control | dose: 200.0 mg/kg/injection, schedule: Q04DX003 (ip), vehicle: dextrose 104 % of control | dose: 400.0 mg/kg/injection, schedule: Q04DX003 (ip), vehicle: dextrose 94 % of control | dose: 1:1.0 dilution, schedule: Q04DX002 (ip), vehicle: saline 104 % of control | dose: 1:2.0 dilution, schedule: Q04DX002 (ip), vehicle: saline 104 % of control | dose: 1:4.0 dilution, schedule: Q04DX002 (ip), vehicle: saline 86 % of control

CC(=O)OC1=NC(C)c2c1cc(OC(C)=O)[nH]c2=O (stereo not given)
inactive: [1] 102 % of control | [2] 108 % of control | [3] 115 % of control

CC1(C)OC2(C)OC1(C)OC2(C)C
inactive: dose: 75.0 mg/kg/injection, schedule: Q01DX009 (ip), vehicle: carboxymethylcellulose (CMC) 100 % of control | dose: 150.0 mg/kg/injection, schedule: Q01DX009 (ip), vehicle: carboxymethylcellulose (CMC) 103 % of control | dose: 300.0 mg/kg/injection, schedule: Q01DX009 (ip), vehicle: carboxymethylcellulose (CMC) 105 % of control

COc1ccccc1OS(=O)(=O)c1ccc(COc2ccc([N+](=O)[O-])cc2Cl)cc1
inactive: dose: 100.0 mg/kg/injection, schedule: Q01DX001 (ip), vehicle: Klucel (hydroxypropylcellulose) (HPC) 93 % of control | dose: 200.0 mg/kg/injection, schedule: Q01DX001 (ip), vehicle: Klucel (hydroxypropylcellulose) (HPC) 98 % of control | dose: 400.0 mg/kg/injection, schedule: Q01DX001 (ip), vehicle: Klucel (hydroxypropylcellulose) (HPC) 96 % of control

NC(=O)N1CCCCC1
inactive: dose: 100.0 mg/kg/injection, schedule: Q01DX001 (ip), vehicle: saline 102 % of control | dose: 200.0 mg/kg/injection, schedule: Q01DX001 (ip), vehicle: saline 98 % of control | dose: 400.0 mg/kg/injection, schedule: Q01DX001 (ip), vehicle: saline 102 % of control

CCOc1ccc(N=Cc2cc(Br)ccc2O)cc1
inactive: dose: 100.0 mg/kg/injection, schedule: Q04DX002 (ip), vehicle: saline with Tween-80 96 % of control | dose: 200.0 mg/kg/injection, schedule: Q04DX002 (ip), vehicle: saline with Tween-80 100 % of control | dose: 400.0 mg/kg/injection, schedule: Q04DX002 (ip), vehicle: saline with Tween-80 100 % of control

CC(c1ccccc1)c1ccc(O)cc1 (stereo not given)
inactive: dose: 100.0 mg/kg/injection, schedule: Q01DX009 (ip), vehicle: saline sonified 97 % of control | dose: 200.0 mg/kg/injection, schedule: Q01DX009 (ip), vehicle: saline sonified 95 % of control | dose: 400.0 mg/kg/injection, schedule: Q01DX009 (ip), vehicle: saline sonified 97 % of control

O=[N+]([O-])c1ccccc1C=Nc1ccccc1O
inactive: [2] 103 % of control | [3] 97 % of control | [4] 94 % of control

COc1cccc(C)c1NC1=NCCO1
inactive: dose: 1.56 mg/kg/injection, schedule: Q01DX009 (ip), vehicle: saline with Tween-80 97 % of control | dose: 1.56 mg/kg/injection, schedule: Q04DX003 (ip), vehicle: saline with Tween-80 97 % of control | dose: 3.13 mg/kg/injection, schedule: Q01DX009 (ip), vehicle: saline with Tween-80 116 % of control | dose: 3.13 mg/kg/injection, schedule: Q04DX003 (ip), vehicle: saline with Tween-80 100 % of control | dose: 6.25 mg/kg/injection, schedule: Q01DX009 (ip), vehicle: saline with Tween-80 101 % of control | dose: 6.25 mg/kg/injection, schedule: Q04DX003 (ip), vehicle: saline with Tween-80 100 % of control and 101 % of control | dose: 25.0 mg/kg/injection, schedule: Q04DX003 (ip), vehicle: saline with Tween-80 96 % of control

CC1NC1C (stereo not given)
inactive: dose: 45.0 mg/kg/injection, schedule: Q04DX003 (ip), vehicle: saline 102 % of control | dose: 90.0 mg/kg/injection, schedule: Q04DX003 (ip), vehicle: saline 98 % of control | dose: 100.0 mg/kg/injection, schedule: Q01DX009 (ip), vehicle: saline 103 % of control | [5] 108 % of control | dose: 180.0 mg/kg/injection, schedule: Q04DX003 (ip), vehicle: saline 107 % of control | dose: 200.0 mg/kg/injection, schedule: Q01DX009 (ip), vehicle: saline 108 % of control | [6] 114 % of control | dose: 400.0 mg/kg/injection, schedule: Q01DX009 (ip), vehicle: saline 103 % of control | [7] 119 % of control

CC(C)(C)C1CCC(S(=O)(=O)c2ccccc2)C(Cl)C1 (stereo not given)
inactive: [8] 102 % of control | [5] 102 % of control | [9] 104 % of control | [6] 96 % of control | [10] 104 % of control | [7] 93 % of control

COC/C(C)=C/Br
inactive: dose: 100.0 mg/kg/injection, schedule: Q01DX009 (ip), vehicle: acetone 97 % of control | dose: 200.0 mg/kg/injection, schedule: Q01DX009 (ip), vehicle: acetone 94 % of control | dose: 400.0 mg/kg/injection, schedule: Q01DX009 (ip), vehicle: acetone 94 % of control

CC(O)(C(=O)O)c1ccccc1 (stereo not given)
inactive: dose: 75.0 mg/kg/injection, schedule: Q01DX009 (ip), vehicle: other 99 % of control | [5] 100 % of control | [11] 94 % of control | [6] 105 % of control | dose: 300.0 mg/kg/injection, schedule: Q01DX009 (ip), vehicle: other 100 % of control | [7] 91 % of control

CN(C)C(N)=Nc1ccc(Cl)cc1
inactive: [12] 97 % of control | [13] 98 % of control | [1] 89 % of control

Cc1cc(Cl)ccc1NC(=O)c1ccc(Cl)cc1Cl
inactive: [8] 96 % of control | [2] 95 % of control | [9] 91 % of control | [3] 92 % of control | [10] 94 % of control | [4] 88 % of control

COc1ncnc2c1ncn2-c1cccc(C)c1
inactive: dose: 50.0 mg/kg/injection, schedule: Q01DX001 (ip), vehicle: carboxymethylcellulose (CMC) 104 % of control | [14] 98 % of control | [15] 104 % of control | [16] 104 % of control

O=S1OCCS1 (stereo not given)
inactive: dose: 13.0 mg/kg/injection, schedule: Q01DX Z (sc), vehicle: saline 100 % of control | dose: 36.0 mg/kg/injection, schedule: Q01DX Z (sc), vehicle: saline 100 % of control

CCOC(CN(Cc1ccc(OC)c(OCc2ccccc2)c1)S(=O)(=O)c1ccc(C)cc1)OCC
inactive: dose: 25.0 mg/kg/injection, schedule: Q01DX009 (ip), vehicle: water 102 % of control | dose: 50.0 mg/kg/injection, schedule: Q01DX009 (ip), vehicle: water 94 % of control | dose: 100.0 mg/kg/injection, schedule: Q01DX009 (ip), vehicle: water 97 % of control | dose: 200.0 mg/kg/injection, schedule: Q01DX009 (ip), vehicle: water 94 % of control | dose: 400.0 mg/kg/injection, schedule: Q01DX009 (ip), vehicle: water 96 % of control

CCN(CC)S(=O)(=O)c1ccc(Nc2nc(Cl)nc(Cl)n2)cc1
inactive: [12] 113 % of control | dose: 12.5 mg/kg/injection, schedule: Q04DX003 (ip), vehicle: Klucel (hydroxypropylcellulose) (HPC) 102 % of control | [13] 97 % of control | dose: 25.0 mg/kg/injection, schedule: Q04DX003 (ip), vehicle: Klucel (hydroxypropylcellulose) (HPC) 100 % of control | [1] 113 % of control | dose: 50.0 mg/kg/injection, schedule: Q04DX003 (ip), vehicle: Klucel (hydroxypropylcellulose) (HPC) 95 % of control

CCCNC(=O)NO
inactive: [14] 103 % of control | [11] 105 % of control | [15] 100 % of control | [16] 105 % of control
